Here are results for 8 molecules from ChEMBL document CHEMBL4400559, “Exploiting the furo[2,3-b]pyridine core against multidrug-resistant Mycobacterium tuberculosis” (Bioorg Med Chem Lett, 2019).

Holding throughout (type): functional
Assay [1] has as its system Mycobacterium tuberculosis. As to the kind of experiment: Antibacterial activity against drug-resistant Mycobacterium tuberculosis isolate 3 after 7 days by resazurin microtiter assay. Particulars: isolate 3, 168 h. A general note: The colour change of resazurin is a common sign of viable cells or microbes.
For assay [2], the system named is Mycobacterium tuberculosis. Put plainly: Antibacterial activity against drug-resistant Mycobacterium tuberculosis isolate 2 after 7 days by resazurin microtiter assay. Particulars: isolate 2, 168 h.
Assay [3] concerns Mycobacterium tuberculosis. Put plainly: Antibacterial activity against drug-resistant Mycobacterium tuberculosis isolate 1 after 7 days by resazurin microtiter assay. Particulars: isolate 1, 168 h.
In assay [4] the test system is Mycobacterium tuberculosis. Put plainly: Antibacterial activity against drug-resistant Mycobacterium tuberculosis isolate 4 after 7 days by resazurin microtiter assay. Particulars: isolate 4, 168 h.
In assay [5] the test system is Mycobacterium tuberculosis. As to the kind of experiment: Antibacterial activity against drug-resistant Mycobacterium tuberculosis isolate 5 after 7 days by resazurin microtiter assay. The note with it: isolate 5, 168 h.

The structures appear in SMILES notation. Values after ≈ are worked out from the molar mass of the structure shown.

With `CCOC(=O)c1c(C)oc2nc(N3CCCC3)ccc12`, the MIC in assay [1] amounted to 9.3 µM (≈ 2.55 µg/mL); in assay [2], 20.2 µM (≈ 5.54 µg/mL); in assay [3] it was 18.1 µM (≈ 4.97 µg/mL); in assay [4] it was 15.8 µM (≈ 4.33 µg/mL); in assay [5], 16.6 µM (≈ 4.55 µg/mL).

In the case of `CCCCNc1ccc2c(C(=O)OCC)c(C(C)C)oc2n1`, the MIC in assay [1], in assay [2], in assay [3], in assay [4] and in assay [5] was above 82.2 µM each time.

For `NCC[C@H](O)C(=O)N[C@@H]1C[C@H](N)[C@@H](O[C@H]2O[C@H](CN)[C@@H](O)[C@H](O)[C@H]2O)[C@H](O)[C@H]1O[C@H]1O[C@H](CO)[C@@H](O)[C@H](N)[C@H]1O` [AMIKACIN], the MIC in assay [1] is 0.4 µM (≈ 0.234 µg/mL); in assay [2] it was 1.6 µM (≈ 0.937 µg/mL); in assay [3], 0.4 µM (≈ 0.234 µg/mL); in assay [4], 0.7 µM (≈ 0.41 µg/mL); in assay [5] it was 1.7 µM (≈ 0.996 µg/mL).

Take `N[C@@H]1CONC1=O` [CYCLOSERINE]: the MIC was above 245 µM in assay [1]; 121 µM (≈ 12.3 µg/mL) in assay [2]; 242 µM (≈ 24.7 µg/mL) in assay [3]; 167 µM (≈ 17 µg/mL) in assay [4]; 196 µM (≈ 20.1 µg/mL) in assay [5].

Turning to `CC[C@@H](CO)NCCN[C@@H](CC)CO` [ETHAMBUTOL], the minimal inhibitory concentration (MIC) in assay [1], in assay [2], in assay [3], in assay [4] and in assay [5] was above 122 µM throughout.

`NNC(=O)c1ccncc1` [ISONIAZID]: the MIC in assay [1], in assay [2], in assay [3], in assay [4] and in assay [5] was above 182 µM throughout.

Consider `COc1c(N2C[C@@H]3CCCN[C@@H]3C2)c(F)cc2c(=O)c(C(=O)O)cn(C3CC3)c12` [MOXIFLOXACIN], for which the minimum inhibitory concentration (MIC) came out at 0.5 µM (≈ 0.201 µg/mL) in assay [1]; 0.7 µM (≈ 0.281 µg/mL) in assay [2]; 0.3 µM (≈ 0.12 µg/mL) in assay [3]; 1.4 µM (≈ 0.562 µg/mL) in assay [4]; 0.4 µM (≈ 0.161 µg/mL) in assay [5].

On to `CO[C@H]1/C=C/O[C@@]2(C)Oc3c(C)c(O)c4c(O)c(c(/C=N/N5CCN(C)CC5)c(O)c4c3C2=O)NC(=O)/C(C)=C\C=C\[C@H](C)[C@H](O)[C@@H](C)[C@@H](O)[C@@H](C)[C@H](OC(C)=O)[C@@H]1C` [RIFAMPIN], for which the MIC in assay [1], in assay [2], in assay [4] and in assay [5] was above 30.4 µM each time.

Broadly, the MIC is the least concentration at which growth counts as inhibited.
